These results are taken from patent US20110275693A1, “Pharmaceutical Compositions Comprising 2-Oxo-1-Pyrrolidine Derivatives” (UCB PHARMA, S.A., priority 2009, published 2011).

Assay [1] concerns rat hippocampal slices. Kind of assay: Epileptiform responses in hippocampal slices (field potentials, CA3 area). In kind it is cell-based, Sprague-Dawley rats. The arrangement: rate of spontaneous field bursting in HKLCF: dose or concentration left out as unconfirmed. The conditions noted are these: for evoked epileptiform responses (PS1 amplitude, repetitive PSs) in HKLCF: CA3 area, fimbrial stimulation, high-K+/low-Ca2+ fluid. The method, then:
The effect of brivaracetam on epileptiform responses induced by high-K+/low-Ca2+ concentrations or by bicuculline was examined in transverse hippocampal slices prepared from Sprague-Dawley rats according to previously reported standard procedures. The epileptiform responses were induced by passing from a normal perfusion of artificial cerebrospinal fluid (ACSF) (K+3 mM; Ca2+2.4 mM) to either high-K+/low-Ca2+ fluid (HKLCF) (K+7.5 mM; Ca2+0.5 mM) or to […] bicuculline methiodide (BMI)-containing ACSF.
Extracellular field potentials (FPs) were recorded in the CA3 area of the slices with 2 M NaCl-filled glass microelectrodes. The evoked FPs were recorded at 10-min intervals in response to fimbrial stimulation with constant current rectangular pulses that elicit a single population spike (PS) of 50-75% of the maximal amplitude when the slice is in ACSF. In the HKLCF model, 2 min of spontaneous activity were also recorded, in the middle of each 10-min interval between the recordings of evoked responses.
Either brivaracetam or levetiracetam was added to the bathing fluid of the slices 20 min before shifting from ACSF to either HKLCF or […] BMI-containing ACSF, and was kept in the perfusion fluid throughout the experiment.

Another assay has as its system amygdala-kindled rats. Description: Fully amygdala-kindled rats. The conditions noted are these: for dose significantly reducing the after-discharge duration: 212.3 is the highest brivaracetam dose tested. In kind it is in vivo, rat.
Assay [2] has as its system genetically sound-sensitive male mice. Description: Audiogenic seizures in mice. Conditions: audiogenic seizure-susceptible mice; brivaracetam i.p. 30 min, levetiracetam i.p. 60 min pretreatment. Type of assay: in vivo. How it is done:
Audiogenic seizures in mice: Genetically sound-sensitive male mice (16-28 g; n=10 per group), responding with wild running, clonic and tonic convulsions to an acoustic stimulation, were used. Audiogenic seizures were induced by an acoustic stimulus (90 dB, 10-20 kHz) applied for 30 s. The mice were pretreated with either saline, brivaracetam (i.p., 30 min) or levetiracetam (i.p., 60 min), and the proportion of mice protected against clonic convulsions was used as the end point to assess anticonvulsant activity.

In assay [3] the test system is pentylenetetrazol-induced clonic convulsions in mice. Kind of assay: Chemically induced seizures in mice (pentylenetetrazol). Conditions: i.p. 30 min before seizure induction, higher ED50 values than audiogenic model. Type of assay: in vivo. The method, then: The dose was selected based on dose-effect curves in saline-treated animals as the convulsive dose inducing clonic convulsions of all four extremities in 97% of the animals. Immediately after administration of the chemoconvulsant, the mice were placed individually in small plastic cages (25 13 8 cm) and observed for the presence of clonic convulsions in all four extremities, for 60 min. The occurrence of tonic convulsions (hindlimb extension) and mortality was also recorded during this interval. The proportion of mice protected against clonic convulsions was calculated and used as the end point for anticonvulsant activity.

The next assay has as its system GAERS rats. Kind of assay: Spontaneous SWDs in GAERS rats. In kind it is in vivo, rat.
A further assay has as its system corneally kindled mice. Kind of assay: Corneal kindling of mice. Type of assay: in vivo.
The subject of another assay is epilepsy patients. The conditions noted are these: adult patients, adjunctive treatment; cited from earlier work.
In assay [4] the test system is patients with post-herpetic neuralgia. The conditions noted are these: cited from earlier work.
Assay [5] has as its system rat hippocampal slices. Conditions: cited from earlier work.

Bounds are passed on as bounds.

Regarding `CCC[C@@H]1CC(=O)N([C@@H](CC)C(N)=O)C1` [Brivaracetam, (2S)-2-[(4R)-2-oxo-4-propyl-pyrrolidin-1-yl] butanamide], in the assay with rat hippocampal slices [1], the “rate of spontaneous field bursting in HKLCF” value is “reduced the rate of this spontaneous bursting” and the “evoked epileptiform responses (PS1 amplitude, repetitive PSs) in HKLCF” value is “reduced these epileptiform responses”. Moreover, in the assay on amygdala-kindled rats, the “dose from which significant suppression in motor-seizure severity is induced” value is at least 21.2 mg/kg and the “dose significantly reducing the after-discharge duration” value is 212.3 mg/kg. Also, the “protection against the expression of clonic convulsions” value in [2] was “protected against the expression of clonic convulsions”. Also, in [3], the “protection against clonic convulsions induced by pentylenetetrazol” value was “protected against clonic convulsions induced by pentylenetetrazol”. Besides, in the assay with GAERS rats, the “dose from which spontaneous SWDs are significantly suppressed” value is at least 2.1 mg/kg. Moreover, in the assay with GAERS rats (highest dose tested), the “dose giving complete inhibition of spontaneous SWDs” value was 67.9 mg/kg. For the same compound, the “incidence of generalized motor seizures after termination of treatment” value in the assay on corneally kindled mice (continued corneal stimulations, group previously treated with the highest dose) was “persistent reduction in the incidence of generalized motor seizures”. The “incidence of generalized motor seizures” value in the assay on corneally kindled mice (pretreatment during corneal kindling of mice) was “significant reduction in the incidence of generalized motor seizures”. For the same compound, the “efficacy in the treatment of epilepsy” value in the assay on epilepsy patients was “effective in the treatment of epilepsy”. Also, the “efficacy in the treatment of post-herpetic neuralgia” value in assay [4] is on record as “effective in the treatment of patients with post-herpetic neuralgia”.

Regarding `CC[C@@H](C(N)=O)N1CCCC1=O` [Levetiracetam], the “evoked epileptiform responses (PS1 amplitude, repetitive PSs) in HKLCF” value in the assay on rat hippocampal slices [1] is “reduced these epileptiform responses”. In the assay with amygdala-kindled rats, the “dose from which significant suppression in motor-seizure severity is induced” value was at least 170 mg/kg and the “dose significantly reducing the after-discharge duration” value is over 1700 mg/kg. In addition, the “protection against the expression of clonic convulsions” value in assay [2] was “protected against the expression of clonic convulsions”. Also, in the assay on rat hippocampal slices [5], the “epileptiform responses induced by high-K+/low-Ca2+ concentrations in the perfusion fluid and by bicuculline” value is reported as “reduces epileptiform responses”.

With `CC[C@@H](C(N)=O)N1C[C@H](C=C(F)F)CC1=O` [Seletracetam, (2S)-2-[(4S)-4-(2,2-difluorovinyl)-2-oxo-pyrrolidin-1-yl]butanamide], in the assay with epilepsy patients, the “efficacy in the treatment of epilepsy” value is reported as “effective in the treatment of epilepsy”.
